Test results taken from US6914045B2, “Glycopeptide antibiotics” (Wyeth Holdings Corporation, priority 2001, dated 2005).
Converted amounts (≈) assume the structure as drawn.

Experiments:
Experiment in all cases: in vitro antibacterial evaluation, MIC by broth dilution
Format in all cases: cell-based
Enterococcus sp. = details: broth dilution, 18 hours at 35° C.
Method in brief: (§1)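 Inoculum 5×10^5 CFU/mL; concentrations 64 to 0.06 μg/mL; MIC defined as lowest inhibitory level. Conducted by broth dilution under NCCLS guidelines.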

Staphylococcus sp. = details: broth dilution, 18 hours at 35° C.
Method in brief: as §1

Streptococcus sp. = details: broth dilution, 18 hours at 35° C.
Method in brief: as §1

Escherichia coli = details: 18 hours at 35° C.
Method in brief: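 Broth dilution in Muller-Hinton II medium per NCCLS standard M7-A2, with an inoculum of 5×10^5 CFU/mL and antibiotic tested over 64-0.06 μg/mL. MIC was taken as the lowest concentration inhibiting visible growth.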

In the case of `CC(c1ccccc1)C1NC(=O)CNC(=O)C(CO)NC(=O)C(C(O)C2CN(Cc3ccccc3)C(=NCc3ccccc3)N2C2OC(CO)C(O)C(O)C2O)NC(=O)C(C(O)C2CN(Cc3ccccc3)C(=NCc3ccccc3)N2Cc2ccccc2)NC(=O)C(Cc2ccc(OC3OC(CO)C(OC4OC(CO)C(O)C(O)C4O)C(O)C3O)cc2)NC1=O` (stereo not drawn) [Example 62, Cyclo[glycyl-β-methylphenylalanyl-O-(4-O-hexopyranosylhexopyranosyl)tyrosyl-3-[1,3-dibenzyl-2-(benzylimino)imidazolidin-4-yl]seryl-3-[1-benzyl-2-(benzylimino)-3-hexopyranosylimidazolidin-4-yl]serylseryl]], the “MIC Enterococcus avium (GC 4558)” value (Enterococcus sp.; Enterococcus avium (GC 4558)) is reported as 128 µg/mL (≈ 73.3 µM), the “MIC Enterococcus faecalis (ATCC 29212)” value (Enterococcus sp.; Enterococcus faecalis (ATCC 29212)) is reported as >128 µg/mL and the “MIC Enterococcus faecalis (GC 4552)” value (Enterococcus sp.; Enterococcus faecalis (GC 4552)) is reported as >128 µg/mL. For the same molecule, the “MIC Enterococcus faecalis (GC 4553)” value (Enterococcus sp.; Enterococcus faecalis (GC 4553)) was 128 µg/mL (≈ 73.3 µM), the “MIC Enterococcus faecalis (GC 4554)” value (Enterococcus sp.; Enterococcus faecalis (GC 4554)) was >128 µg/mL and the “MIC Enterococcus faecalis (GC 6189)” value (Enterococcus sp.; Enterococcus faecalis (GC 6189)) was >128 µg/mL. The “MIC Enterococcus faecium (GC 2243)” value (Enterococcus sp.; Enterococcus faecium (GC 2243)) was >128 µg/mL, the “MIC Enterococcus faecium (GC 4556)” value (Enterococcus sp.; Enterococcus faecium (GC 4556)) was >128 µg/mL and the “MIC Enterococcus faecium (GC 4557)” value (Enterococcus sp.; Enterococcus faecium (GC 4557)) was 64 µg/mL (≈ 36.7 µM). For the same molecule, the “MIC Enterococcus avium (GC 4558)” value (Enterococcus sp.) was 128 µg/mL (≈ 73.3 µM), the “MIC Enterococcus faecalis (ATCC 29212)” value (Enterococcus sp.) was >128 µg/mL and the “MIC Enterococcus faecalis (GC 2242)” value (Enterococcus sp.) was >128 µg/mL. The “MIC Enterococcus faecalis (GC 2691)” value (Enterococcus sp.) was >128 µg/mL, the “MIC Enterococcus faecalis (GC 3059)” value (Enterococcus sp.) was >128 µg/mL and the “MIC Enterococcus faecalis (GC 4552)” value (Enterococcus sp.) was >128 µg/mL. For the same molecule, the “MIC Enterococcus faecalis (GC 4553)” value (Enterococcus sp.) was 128 µg/mL (≈ 73.3 µM), the “MIC Enterococcus faecalis (GC 4554)” value (Enterococcus sp.) was >128 µg/mL and the “MIC Enterococcus faecalis (GC 6189)” value (Enterococcus sp.) was >128 µg/mL. The “MIC Enterococcus faecium (GC 2243)” value (Enterococcus sp.) was >128 µg/mL, the “MIC Enterococcus faecium (GC 4556)” value (Enterococcus sp.) was >128 µg/mL and the “MIC Enterococcus faecium (GC 4557)” value (Enterococcus sp.) was 64 µg/mL (≈ 36.7 µM). For the same molecule, the “MIC Enterococcus faecalis (GC 2242)” value (Enterococcus sp.; strain GC 2242) was >128 µg/mL, the “MIC Enterococcus faecalis (GC 2691)” value (Enterococcus sp.; strain GC 2691) was >128 µg/mL and the “MIC Enterococcus faecalis (GC 3059)” value (Enterococcus sp.; strain GC 3059) was >128 µg/mL. For the same molecule, the “MIC Staphylococcus aureus (ATCC 29213)” value (Staphylococcus sp.; strain ATCC 29213) was >128 µg/mL, the “MIC Staphylococcus aureus (GC 1131)” value (Staphylococcus sp.; strain GC 1131) was >128 µg/mL and the “MIC Staphylococcus aureus (GC 3051)” value (Staphylococcus sp.; strain GC 3051) was >128 µg/mL. For the same molecule, the “MIC Staphylococcus aureus (GC 3053)” value (Staphylococcus sp.; strain GC 3053) was >128 µg/mL, the “MIC Staphylococcus aureus (GC 4541)” value (Staphylococcus sp.; strain GC 4541) was >128 µg/mL and the “MIC Staphylococcus aureus (GC 4542)” value (Staphylococcus sp.; strain GC 4542) was >128 µg/mL. The “MIC Staphylococcus aureus-SMITH (GC 4543)” value (Staphylococcus sp.; strain GC 4543) was >128 µg/mL, the “MIC Staphylococcus aureus (GC 4544)” value (Staphylococcus sp.; strain GC 4544) was >128 µg/mL and the “MIC Staphylococcus aureus (GC 4545)” value (Staphylococcus sp.; strain GC 4545) was >128 µg/mL. The “MIC Staphylococcus haemolyticus (GC 4546)” value (Staphylococcus sp.; strain GC 4546) was >128 µg/mL, the “MIC Coagulase Negative Staphylococcus (GC 4547)” value (Staphylococcus sp.; strain GC 4547) was >128 µg/mL and the “MIC Coagulase Negative Staphylococcus (GC 4548)” value (Staphylococcus sp.; strain GC 4548) was >128 µg/mL. For the same molecule, the “MIC Coagulase Negative Staphylococcus (GC 4549)” value (Staphylococcus sp.; strain GC 4549) was >128 µg/mL, the “MIC Coagulase Negative Staphylococcus (GC 4551)” value (Staphylococcus sp.; strain GC 4551) was >128 µg/mL and the “MIC Coagulase Negative Staphylococcus (GC 6257)” value (Staphylococcus sp.; strain GC 6257) was >128 µg/mL. The “MIC Streptococcus agalactiae (GC 4564)” value (Streptococcus sp.) was >128 µg/mL, the “MIC Streptococcus pneumoniae (ATCC 6301)” value (Streptococcus sp.) was 128 µg/mL (≈ 73.3 µM) and the “MIC Streptococcus pneumoniae (GC 1894)” value (Streptococcus sp.) was 64 µg/mL (≈ 36.7 µM). The “MIC Streptococcus pneumoniae (GC 4565)” value (Streptococcus sp.) was 128 µg/mL (≈ 73.3 µM), the “MIC Streptococcus pyogenes (GC 4563)” value (Streptococcus sp.) was >128 µg/mL and the “MIC Streptococcus pneumoniae (ATCC 6301)” value (Streptococcus sp.; strain ATCC 6301) was 128 µg/mL (≈ 73.3 µM). For the same molecule, the “MIC Streptococcus pneumoniae (GC 1894)” value (Streptococcus sp.; strain GC 1894) was 64 µg/mL (≈ 36.7 µM), the “MIC Streptococcus pyogenes (GC 4563)” value (Streptococcus sp.; strain GC 4563) was >128 µg/mL and the “MIC Streptococcus agalactiae (GC 4564)” value (Streptococcus sp.; strain GC 4564) was >128 µg/mL. The “MIC Streptococcus pneumoniae (GC 4565)” value (Streptococcus sp.; strain GC 4565) was 128 µg/mL (≈ 73.3 µM), the “MIC Escherichia coli (ATCC 25922)” value (Escherichia coli) was >128 µg/mL and the “MIC Escherichia coli (GC 4559)” value (Escherichia coli) was >128 µg/mL. For the same molecule, the “MIC Escherichia coli (GC 4560)” value (Escherichia coli) was 4 µg/mL (≈ 2.29 µM).
